Test results: a melting point compilation (Tetko et al.; mined from patent text by program, amines drawn as free bases though some values may be those of a salt)

Compared with `CC(Cn1ccnc1)Cn1nnc2ccc(Cl)cc2c1=O` (stereo not given), `NC(=O)Cn1c(-c2cccc(Cl)c2)nc2cccnc21` is higher in melting point: 100 to 102 °C for the first, 245 to 247 °C for the second.

Compared with `CN1C(=O)C(c2ccc(OC(F)F)cc2)(c2cccc(CCCC#N)c2)N=C1N` (stereo not given), `CC(C)c1ccccc1Sc1c(O)cc(-c2ccc(OCCCc3ccccc3)cc2)oc1=O` is higher in melting point: 75 °C for the first, 132 to 133 °C for the second.

Compared with `CCN1C(=O)C(C(N)=O)(c2ccc(Cl)c(Cl)c2)OS1=O` (stereo not given), `CCOC(=O)c1c(N2CCOCC2)c2cc(Cl)ccc2n(C)c1=O` is higher in melting point: 127 to 128 °C for the first, 167 to 169 °C for the second.

Compared with `CC(C)C(C(=O)O)N1CCCNC1=O` (stereo not given), `CC(=O)c1ccc2c(c1)ncn2-c1cccc(C(=NOC(C)C)OC2CCCN(C)C2)c1` (stereo not given) is lower in melting point: 176 to 177 °C for the first, 104 to 106 °C for the second.

First: Fc1cccc(Cl)c1-c1cc(-c2ccc(Cl)cc2)nc2ncnn12
Second: Cc1ncc2n1-c1ccc(Cl)cc1C(c1ccccc1F)NC2 (stereo not given)
The melting point of the first is higher: 238 to 239 °C for the first, 200 to 203 °C for the second.

Compared with `CC(=O)c1ccc(S(=O)(=O)Nc2ccc(C(F)(F)F)cn2)cc1`, `Cc1ccc(S(=O)(=O)NCCCN(C)S(=O)(=O)c2ccc(C)cc2)cc1` is lower in melting point: 179 to 180 °C for the first, 93 °C for the second.

First: CC(=O)C1CCC2C3CCC4CC(O)C(OCCC#N)CC4(C)C3C(=O)CC12C (stereo not given)
Second: CC(=O)N1CCC(Oc2ccc([N+](=O)[O-])cc2C)CC1
The melting point of the first is higher: 194 to 196 °C for the first, 139 to 141 °C for the second.

Compared with `CCCCc1oc2ccccc2c1C(=O)NCc1ccc2c(-c3ccc(OC)cc3)c(O)ccc2c1`, `CCCCc1c(/C=C/C(=O)O)ccc2cc(OC)ccc12` is higher in melting point: 118 to 122 °C for the first, 163 to 164 °C for the second.

First: CCCCCCCCCCOc1ccc(-c2ccc(CCCCC(C)O)cc2)cc1 (stereo not given)
Second: CC#CCOc1ccc(S(=O)(=O)C(C(=O)NO)c2cccc3ccccc23)cc1 (stereo not given)
The melting point of the first is lower: 92 to 93 °C for the first, 213 °C for the second.

Compared with `CCCN(C=O)n1cc(C(=O)OCC)c(=O)c2cc3c(cc21)OCO3`, `COC(=O)c1c(SCc2ccc(OC)cc2)nc(-c2ccccc2)n1Cc1cc2c(cc1Cl)OCO2` is lower in melting point: 188 to 192 °C for the first, 158 °C for the second.

Compared with `CNc1cn(-c2cncc(F)c2)nc1Cl`, `Cc1ncnn1-c1ccc(C#N)c(F)c1` is lower in melting point: 118 to 119 °C for the first, 89 to 90 °C for the second.

Compared with `CCCOc1ccc(N(C)S(=O)(=O)c2ccc(C)cc2)c([N+](=O)[O-])c1`, `COc1cccc(NC(=O)c2ccc(F)c([N+](=O)[O-])c2)c1` is higher in melting point: 93 to 94 °C for the first, 145 to 146 °C for the second.

First: COc1ccc(CC(=O)Nc2ccc3sc(C)nc3c2Cl)cc1
Second: COc1ccc(CSc2nc3cnccc3[nH]2)cc1
The melting point of the first is higher: 173 to 174 °C for the first, 160 to 161 °C for the second.

First: CC(C)(C)N[C@@H]1Cc2cccc(O)c2C[C@H]1O (relative stereo)
Second: Cc1cn(C(C)(C)C(=O)NC(C)(C)C)nc1-c1ccccc1
The melting point of the first is higher: 97 to 102 °C for the first, 71 to 75 °C for the second.

Compared with `CNC(=O)Oc1ccc(S(C)(=O)=O)c2c1CCCC2`, `CC(=O)Oc1cccc(C2(N(C)C)CCC(=O)CC2)c1` is lower in melting point: 162 to 164 °C for the first, 51 to 53 °C for the second.

First: COC(=O)c1c(C(=O)OC)c2n(c1C)Cc1c(c3ccccc3n1C)C2
Second: CCOC(=O)c1ncn2c1CN(C)C(=S)c1ccccc1-2
The melting point of the first is higher: 240 to 241 °C for the first, 164 to 165 °C for the second.

Compared with `CC(C)C[C@H](NC(=O)OC(C)(C)C)C(=O)NCC(=O)OCCCNc1cccc2c1C(=O)c1ccccc1C2=O`, `CC(C)(C)c1cc(CCc2ccccc2NC(=O)NCCCN2CCOCC2)cc(C(C)(C)C)c1O` is higher in melting point: 86 °C for the first, 138 to 139 °C for the second.

Compared with `Nc1ncnc2c1ncn2[C@@H]1CO[C@H](CO)[C@@H](O)C1`, `OCc1cn(-c2ccc(OC(F)(F)F)c(Cl)c2)cn1` is lower in melting point: 237 to 239 °C for the first, 115 to 116 °C for the second.

First: O=C1CC=Cc2ncncc21
Second: Clc1ccc(C2=CCc3cc(Br)cnc3O2)cc1Cl
The melting point of the first is higher: 211 to 212 °C for the first, 138 to 140 °C for the second.

First: Cc1oncc1C(=O)N1CCC[C@H](c2nc(-c3ccc[nH]3)no2)C1
Second: CCN1c2ncccc2C(=O)Nc2c(C)cc(N3CCC(O)C3)nc21 (stereo not given)
The melting point of the first is lower: 125 to 127 °C for the first, 131 to 134 °C for the second.

First: CCOCC1=C(C(=O)OCC)C(c2ccccc2)C(C(=O)OCC)=C(C)N1 (stereo not given)
Second: CCCCc1nc2c(N)nc3ccccc3c2n1CCOCCS(C)(=O)=O
The melting point of the first is lower: 112 °C for the first, 168 to 170 °C for the second.

Compared with `C=CCCCN(CCCC=C)Cc1noc(-c2ncn3c2CN(C)C(=O)c2ccccc2-3)n1`, `ClCc1cc(OCc2ccc3ccccc3n2)no1` is lower in melting point: 167 to 169 °C for the first, 126 to 127 °C for the second.

First: CNC(=NS(C)(=O)=O)NCCCCc1csc(NC(N)=NCCO)n1
Second: CCCCC1=Nc2sccc2C(=CN)N1CCC
The melting point of the first is higher: 128 to 132 °C for the first, 45 to 47 °C for the second.

First: COCCNC(=O)c1cccc(-c2c(F)ccc3cc(Cc4cccc(C(F)(F)F)c4)sc23)c1
Second: Cc1ccc2c(c1)C=Cc1cc(C)ccc1C2c1cn(Cc2ccc(C(=O)O)o2)c(=O)[nH]c1=S
The melting point of the first is lower: 116 to 117 °C for the first, 290 to 292 °C for the second.

Compared with `CCC1Nc2cc(F)c(F)c(F)c2-n2cccc21` (stereo not given), `CC1CC1n1cc(C(=O)O)c(=O)c2cc(F)c(F)c(F)c21` (stereo not given) is higher in melting point: 69 to 70 °C for the first, 167 to 168 °C for the second.

Compared with `O=C1c2ccccc2-c2c1c(=O)[nH]c1ccccc21`, `OC(=S)c1ccccc1-c1ccccc1` is lower in melting point: > 290 °C for the first, 178 to 180 °C for the second.

Compared with `CC1(C)CCC(C)(C)c2cc(C(C)(O)C(=O)O)ccc21` (stereo not given), `CC(=Cc1ccccc1)c1ccc2c(c1)C(C)(C)CCN2C` is lower in melting point: 149 to 150 °C for the first, 69 to 71 °C for the second.

First: Ic1ccc(OC2CCCC2)cc1
Second: N#CC1(Nc2ccccc2)CCN([C@@H]2CC[C@H]3CCCc4cccc2c43)CC1 (racemic)
The melting point of the first is lower: 50 to 52 °C for the first, 142 °C for the second.

First: COc1ccc2c(c1)C(=O)N(c1ccc3[nH]c(=O)ccc3c1)C2
Second: COc1cc(OC)cc(Sc2ccc([N+](=O)[O-])cc2)c1
The melting point of the first is higher: 305 to 310 °C for the first, 63 to 65 °C for the second.

Compared with `COc1cc2cn(-c3c(C)c(C)c4c(c3C)C(c3ccc(C)cc3)C(C)(C)O4)cc2cc1OC` (stereo not given), `COc1ccc(S(=O)(=O)N(CC(N)=O)c2ccc(Cl)cc2C(O)c2c(Cl)cccc2Cl)cc1OC` (stereo not given) is lower in melting point: 146 to 147 °C for the first, 128 °C for the second.

First: Fc1ccccc1C(Cl)(c1ccccc1)c1ccccc1
Second: CC(C)(OCc1nn(Cc2ccccc2)c2ccccc12)C(=O)NNc1ccccc1
The melting point of the first is higher: 134 to 135 °C for the first, 124 to 125 °C for the second.

First: Cc1cccc(N(C)C(=O)COc2cc(C(F)(F)F)no2)c1
Second: N#Cc1nccnc1Oc1cccc(C(F)(F)F)c1
The melting point of the first is lower: 54 to 55.5 °C for the first, 68 to 70 °C for the second.

First: Cc1cc2cc(O)c(Cl)c(Cl)c2s1
Second: CC(=O)c1cc(O)c(C)cc1O
The melting point of the first is lower: 93 to 95 °C for the first, 144 to 146 °C for the second.

Compared with `COC(=O)COc1cccc2c(CCSC(c3ccc(O)cc3)c3ccc(O)cc3)c(C)oc12`, `Nc1ccc(C(=O)NNC(=O)CCCCN2CCC(Cc3ccccc3)CC2)cc1` is lower in melting point: 178 to 180 °C for the first, 163 to 165 °C for the second.

Compared with `O=S1(=O)NCNc2ccc(F)cc21`, `Cc1cc(=O)oc2cc(NC(=O)CO)ccc12` is higher in melting point: 159 to 165 °C for the first, 253 to 254 °C for the second.

Compared with `CC1(C)CN(CC(C)(O)c2ccc3c(c2)OCO3)c2nc(-c3ccncn3)cc(=O)n2C1` (stereo not given), `CCc1cc(C(C)=O)nn1-c1ccc([N+](=O)[O-])cc1` is lower in melting point: 194 to 196 °C for the first, 93 to 95 °C for the second.

Compared with `OCC12COC(O1)C(O)C(O)C2O` (stereo not given), `COc1cc(CCCl)cc2c1OCO2` is lower in melting point: 166 to 168 °C for the first, 67 to 68 °C for the second.

Work on `N#Cc1cccc2nnsc12` yielded a melting point of 114 to 117 °C.
